ChEMBL document CHEMBL1130896, “Nucleosides and nucleotides. 176. 2'-Deoxy-2'-hydroxylaminocytidine: a new antitumor nucleoside that inhibits DNA synthesis although it has a ribonucleoside structure” (Bioorg Med Chem Lett, 1998)

Experiments:
L1210 [1] = assay: In vitro antitumor activity using the incorporation of thymidine and uridine into RNA of L1210 cells at time 1 hr; assay type: functional, Mus musculus
MCF7 = assay: In vitro antitumor activity against MCF-7 cell line extracted form mammary carcinoma; assay type: functional, cell-based; settings: Homo sapiens
HL-60 = assay: In vitro antitumor activity against HL-60 cell line extracted formpromyelocytic leukemia; assay type: functional, cell-based; settings: Homo sapiens
MIA PaCa-2 = assay: In vitro antitumor activity against MiaPaCa-2 cell line extracted form pancreas adenocarcinoma; assay type: functional, cell-based; settings: Homo sapiens
COLO 320DM = assay: In vitro antitumor activity against COLO 320DM cell line extracted form colon adenocarcinoma; assay type: functional, cell-based; settings: Homo sapiens
HT-1080 = assay: In vitro antitumor activity against HT1080 cell line extracted form fibrosarcoma; assay type: functional, cell-based; settings: Homo sapiens
Huh-7 = assay: In vitro antitumor activity against HuH7 cell line extracted form hepatoma; assay type: functional, cell-based; settings: Homo sapiens
K562 = assay: In vitro antitumor activity against K562 cell line extracted formchronic myelogenous leukemia; assay type: functional, cell-based; settings: Homo sapiens
PANC-1 = assay: In vitro antitumor activity against PANC cell line extracted form pancreas adenocarcinoma; assay type: functional, cell-based; settings: Homo sapiens
L1210 [2] = assay: In vitro antitumor activity using the incorporation of thymidine and uridine into DNA of L1210 cells at time 2 hr; assay type: functional, Mus musculus
L1210 [3] = assay: In vitro antitumor activity using the incorporation of thymidine and uridine into DNA of L1210 cells at time 3 hr; assay type: functional, Mus musculus
L1210 [4] = assay: In vitro antitumor activity using the incorporation of thymidine and uridine into RNA of L1210 cells at time 3 hr; assay type: functional, Mus musculus
L1210 [5] = assay: In vitro antitumor activity using the incorporation of thymidine and uridine into RNA of L1210 cells at time 2 hr; assay type: functional, Mus musculus
CCRF-CEM = assay: In vitro antitumor activity against CCRF-CEM cell line extracted form acute lymphoblastic leukemia; assay type: functional, cell-based; settings: Homo sapiens
A-375 = assay: In vitro antitumor activity against A375cell line extracted form melanoma; assay type: functional, cell-based; settings: Homo sapiens
L1210 [6] = assay: In vitro antitumor activity using the incorporation of thymidine and uridine into DNA of L1210 cells at time 1 hr; assay type: functional, Mus musculus

IC50 (MCF7): 1.3 µM
IC50 (HL-60): 5.76 µM
IC50 (MIA PaCa-2): 4 µM
IC50 (COLO 320DM): 8.93 µM
IC50 (HT-1080): 2.53 µM
IC50 (Huh-7): 1.47 µM
IC50 (K562): 2.77 µM
IC50 (PANC-1): 69.1 µM
IC50 (CCRF-CEM): 1.73 µM
IC50 (A-375): 0.89 µM
Structure (SMILES): Nc1ccn(C2OC(CO)[C@@H](O)[C@H]2NO)c(=O)n1 (stereo partly specified)
Inhibition (L1210 [1]): 21%
Inhibition (L1210 [2]): 98%
Inhibition (L1210 [3]): 95%
Inhibition (L1210 [4]): 23%
Inhibition (L1210 [5]): 20%
Inhibition (L1210 [6]): 83%
